Values joined by “and” are separate entries in the source; they are usually repeats but may differ in a detail not shown here. Equal values may be shown once.
Molecular target: T1, human IDO1 (Homo sapiens, UniProt P14902)
T1 construct: expressed in transfected cells
Assay: IDO inhibition assay in human IDO1/HEK293 cells (IDO1 HEK Human)
Type: cell-based
Conditions: HEK293 cells stably expressing human IDO1; 20 hours incubation; absorbance at 490 nm after Ehrlich reagent
Summary of the method: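 HEK293 clones stably expressing human IDO1 (10,000 cells/well, phenol red-free RPMI, 10% FBS) were treated with compound for 20 hours at 37° C. After 0.2% TCA and 30 min at 50° C., kynurenine was read with Ehrlich reagent at 490 nm. IC50 was normalised to DMSO (0%) and 500 nM reference standard (100%).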

T1 sequence (P14902 whole entry): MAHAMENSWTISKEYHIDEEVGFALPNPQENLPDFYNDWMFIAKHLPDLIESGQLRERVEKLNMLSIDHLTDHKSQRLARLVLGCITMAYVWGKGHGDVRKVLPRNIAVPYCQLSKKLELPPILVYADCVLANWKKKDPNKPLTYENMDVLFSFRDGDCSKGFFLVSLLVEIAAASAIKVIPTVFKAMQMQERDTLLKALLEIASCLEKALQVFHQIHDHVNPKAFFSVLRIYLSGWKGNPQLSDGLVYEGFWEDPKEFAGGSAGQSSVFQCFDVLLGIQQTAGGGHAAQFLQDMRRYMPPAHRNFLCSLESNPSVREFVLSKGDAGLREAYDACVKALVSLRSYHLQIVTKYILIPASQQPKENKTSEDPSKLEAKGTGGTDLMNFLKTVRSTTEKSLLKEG

**Q.** How did the IC50 turn out when Cc1ccc(NC(=O)Nc2cc(-c3ccccc3-c3nnn[nH]3)cc3c2OCCC(C)C3c2ccccc2)cc1 (single isomer, unassigned) [Example 43, 1-(7-(2-(1H-tetrazol-5-yl)phenyl)-4-methyl-5-phenyl-2,3,4,5-tetrahydrobenzo[b]oxepin-9-yl)-3-(p-tolyl)urea] was run?
**A.** 30.1 nM

**Q.** Cc1ccc(NC(=O)Nc2cc(-c3ccccc3-c3nnn[nH]3)cc3c2OCCC(C)C3c2ccccc2)cc1 (single isomer, unassigned) [Example 44, 1-(7-(2-(1H-tetrazol-5-yl)phenyl)-4-methyl-5-phenyl-2,3,4,5-tetrahydrobenzo[b]oxepin-9-yl)-3-(p-tolyl)urea] was tested. Which IC50 did it give?
**A.** 1.7 nM

**Q.** Which IC50 does the source give for Cc1ccc(NC(=O)Nc2cc(-c3ccccc3-c3nnn[nH]3)cc3c2OCCC(C)C3c2ccccc2)cc1 (single isomer, unassigned) [Example 45, 1-(7-(2-(1H-tetrazol-5-yl)phenyl)-4-methyl-5-phenyl-2,3,4,5-tetrahydrobenzo[b]oxepin-9-yl)-3-(p-tolyl)urea] here?
**A.** 106 nM and 288 nM

**Q.** Cc1ccc(NC(=O)Nc2cc(-c3ccccc3-c3nnn[nH]3)cc3c2OCCC(C)C3c2ccccc2)cc1 (single isomer, unassigned) [Example 46, 1-(7-(2-(1H-tetrazol-5-yl)phenyl)-4-methyl-5-phenyl-2,3,4,5-tetrahydrobenzo[b]oxepin-9-yl)-3-(p-tolyl)urea] was tested. Which IC50 did it give?
**A.** 0.78 nM

**Q.** For Cc1ccc(CC(=O)Nc2cc(-c3ccccc3-c3nnn[nH]3)cc3c2OCCC(C)C3c2ccccc2)cc1 (single isomer, unassigned) [Example 47, N-(7-(2-(1H-tetrazol-5-yl)phenyl)-4-methyl-5-phenyl-2,3,4,5-tetrahydrobenzo[b]oxepin-9-yl)-2-(p-tolyl)acetamide], which IC50 is on record?
**A.** 282 nM

**Q.** Cc1ccc(CC(=O)Nc2cc(-c3ccccc3-c3nnn[nH]3)cc3c2OCCC(C)C3c2ccccc2)cc1 (single isomer, unassigned) [Example 48, N-(7-(2-(1H-tetrazol-5-yl)phenyl)-4-methyl-5-phenyl-2,3,4,5-tetrahydrobenzo[b]oxepin-9-yl)-2-(p-tolyl)acetamide] was tested. Which IC50 did it give?
**A.** 12.5 nM

**Q.** Which IC50 does the source give for CC1CCOc2c(Nc3nc4ccccc4o3)cc(-c3ccccc3-c3nnn[nH]3)cc2C1c1ccccc1 (single isomer, unassigned) [Example 51, N-(7-(2-(1H-tetrazol-5-yl)phenyl)-4-methyl-5-phenyl-2,3,4,5-tetrahydrobenzo[b]oxepin-9-yl)benzo[d]oxazol-2-amine] here?
**A.** 3.8 nM

**Q.** CC1CCOc2c(Nc3nc4ccccc4[nH]3)cc(-c3ccccc3-c3nnn[nH]3)cc2C1c1ccccc1 (single isomer, unassigned) [Example 52, N-(7-(2-(1H-tetrazol-5-yl)phenyl)-4-methyl-5-phenyl-2,3,4,5-tetrahydrobenzo[b]oxepin-9-yl)-1H-benzo[d]imidazol-2-amine] was tested. Which IC50 did it give?
**A.** 499 nM

**Q.** How did the IC50 turn out when CC(=O)NS(=O)(=O)c1ccccc1-c1cc(NC(=O)Nc2ccc(C)cc2)c2c(c1)C(c1ccccc1)CCCO2 (single isomer, unassigned) [Example 58, N-((2-(5-phenyl-9-(3′-(p-tolyl)ureido)-2,3,4,5-tetrahydrobenzo[b]oxepin-7-yl)phenyl)sulfonyl)acetamide] was run?
**A.** 1360 nM

**Q.** For Cc1ccc(NC(=O)Nc2cc(-c3ccccc3S(=O)(=O)NC(=O)c3ccccc3)cc3c2OCCCC3c2ccccc2)cc1 (single isomer, unassigned) [Example 61, N-((2-(5-phenyl-9-(3-(p-tolyl)ureido)-2,3,4,5-tetrahydrobenzo[b]oxepin-7-yl)phenyl)sulfonyl)benzamide], which IC50 is on record?
**A.** 2290 nM

**Q.** Cc1ccc(NC(=O)Nc2cc(-c3cc(C)ccc3C(=O)O)cc3c2OCCCC3c2ccccc2)cc1 (single isomer, unassigned) [Example 68, 4-methyl-2-(5-phenyl-9-(3-(p-tolyl)ureido)-2,3,4,5-tetrahydrobenzo[b]oxepin-7-yl)benzoic acid] was tested. Which IC50 did it give?
**A.** 14.4 nM

**Q.** For Cc1nc2ccc(Nc3cc(-c4ccccc4-c4nnn[nH]4)cc4c3OCCCC4c3ccccc3)cc2s1 (single isomer, unassigned) [Example 71, N-(7-(2-(1H-tetrazol-5-yl)phenyl)-5-phenyl-2,3,4,5-tetrahydrobenzo[b]oxepin-9-yl)-2-methylbenzo[d]thiazol-6-amine], which IC50 is on record?
**A.** 3.1 nM

**Q.** Cc1ccc(-c2nnn[nH]2)c(-c2cc(Nc3ccc(Cl)cc3F)c3c(c2)C(c2ccccc2)CCCO3)c1 (single isomer, unassigned) [Example 75, N-(4-chloro-2-fluorophenyl)-7-(5-methyl-2-(1H-tetrazol-5-yl)phenyl)-5-phenyl-2,3,4,5-tetrahydrobenzo[b]oxepin-9-amine] was tested. Which IC50 did it give?
**A.** 18.5 nM

**Q.** How did the IC50 turn out when Cc1ccc(-c2nnn[nH]2)c(-c2cc(Nc3ccc(Cl)c(F)c3)c3c(c2)C(c2ccccc2)CCCO3)c1 (single isomer, unassigned) [Example 76, N-(4-chloro-3-fluorophenyl)-7-(5-methyl-2-(1H-tetrazol-5-yl)phenyl)-5-phenyl-2,3,4,5-tetrahydrobenzo[b]oxepin-9-amine] was run?
**A.** 8.3 nM

**Q.** Which IC50 does the source give for Cc1ccc(-c2nnn[nH]2)c(-c2cc(Nc3ccc(Cl)cc3)c3c(c2)C(c2ccccc2)CCCO3)c1 (single isomer, unassigned) [Example 78, N-(4-chlorophenyl)-7-(5-methyl-2-(1H-tetrazol-5-yl)phenyl)-5-phenyl-2,3,4,5-tetrahydrobenzo[b]oxepin-9-amine] here?
**A.** 8.5 nM

**Q.** For Cc1ccc(-c2nnn[nH]2)c(-c2cc(Nc3ccc(OC(F)F)cc3)c3c(c2)C(c2ccccc2)CCCO3)c1 (single isomer, unassigned) [Example 79, N-(4-(difluoromethoxy)phenyl)-7-(5-methyl-2-(1H-tetrazol-5-yl)phenyl)-5-phenyl-2,3,4,5-tetrahydrobenzo[b]oxepin-9-amine], which IC50 is on record?
**A.** 33.5 nM

**Q.** c1ccc(C2CCCOc3c(Nc4ccnc5ccnn45)cc(-c4ccccc4-c4nnn[nH]4)cc32)cc1 (single isomer, unassigned) [Example 81, N-(7-(2-(1H-tetrazol-5-yl)phenyl)-5-phenyl-2,3,4,5-tetrahydrobenzo[b]oxepin-9-yl) pyrazolo[1,5-a]pyrimidin-7-amine] was tested. Which IC50 did it give?
**A.** 2510 nM

**Q.** Which IC50 does the source give for c1ccc(C2CCCOc3c(Nc4ccc5ccccc5n4)cc(-c4ccccc4-c4nnn[nH]4)cc32)cc1 (single isomer, unassigned) [Example 83, N-(7-(2-(1H-tetrazol-5-yl)phenyl)-5-phenyl-2,3,4,5-tetrahydrobenzo[b]oxepin-9-yl) quinolin-2-amine] here?
**A.** 17.4 nM

**Q.** With C=C[C@H]1Oc2c(NC(=O)Nc3ccc(C)cc3)cc(-c3ccccc3-c3nnn[nH]3)cc2[C@@H]1c1ccccc1 (single isomer, unassigned) [Example 88, 1-((trans)-5-(2-(1H-tetrazol-5-yl)phenyl)-3-phenyl-2-vinyl-2,3-dihydrobenzofuran-7-yl)-3-(p-tolyl)urea] as the molecule, how does the IC50 read?
**A.** 105 nM

**Q.** For C=C[C@@H]1Oc2c(NC(=O)Nc3ccc(C)cc3)cc(-c3ccccc3-c3nnn[nH]3)cc2[C@H]1c1ccccc1 (single isomer, unassigned) [Example 89, 1-((trans)-5-(2-(1H-tetrazol-5-yl)phenyl)-3-phenyl-2-vinyl-2,3-dihydrobenzofuran-7-yl)-3-(p-tolyl)urea], which IC50 is on record?
**A.** 13 nM

Source: US12145927B2 (BRISTOL-MYERS SQUIBB COMPANY, priority 2018, dated 2024)
